Test results taken from PMC5374206, “Anti-bacterial and Anti-biofilm Evaluation of Thiazolopyrimidinone Derivatives Targeting the Histidine Kinase YycG Protein of Staphylococcus epidermidis” (Frontiers in Microbiology, 2017).
“Also recorded” adds a separate entry of the source.

Assays:
[1] = system: MRSA strain 226 young biofilms; assay: Microtiter plate assay of 6 h young biofilms of MRSA; format: cell-based, S. aureus
Protocol: The biofilm-killing effect for immature (6 h old) biofilms was determined in TSB using a semi-quantitative assay. An overnight culture was diluted 1:200 into TSB medium with 0.25% glucose, and incubated in polystyrene 96-well plates at 37°C for 6 h. Biofilms were exposed to two-fold serial dilutions of the derivatives, and the plates were incubated for another 18 h at 37°C. Following the incubation and removal of non-adherent cells with 200 μl of phosphate-buffered saline, adherent biofilms were fixed with 95% methanol and stained with 2% (w/v) crystal violet. Then, the wells were washed three times with sterile distilled water and the plates were air dried for 2 h. The optical density of each well at 570 nm was determined using a 96-well plate spectrophotometer (DTX880, Beckman Coulter, USA).

[2] = system: S. epidermidis ATCC 35984 biofilm formation; assay: Flow-based biofilm inhibition assay (BioFlux); format: cell-based, Staphylococcus epidermidis; conditions: 2 × MIC; shear 0.15 dyn/cm^2; 16 h; result in words
Protocol: The microfluidic channels of BioFlux 48-well plates (Fluxion Biosciences, South San Francisco, CA, USA) were primed with pre-warmed (37°C) TSB medium from the outlet well at a shear setting of 2 dyn/cm^2 for 10 min. Overnight bacterial culture of S. epidermidis ATCC 35984 was subcultured to mid-log phase and then diluted 1:200 in MHB medium, bacteria were seeded from the outlet well into the channel and viewing window at a shear setting of 2 dyn/cm^2 for 3 s. […] Growth of the biofilms was monitored for up to 16 h. Images of different stages were automatically acquired at 10 min intervals with bright-field illumination.

YycG′ protein = biological target: T1, YycG′ protein (Staphylococcus epidermidis, UniProt Q5HK19); assay: Inhibition of YycG′ autophosphorylation (Kinase-Glo Luminescent Kinase Assay); format: biochemical; conditions: 4 μM ATP; for inhibition of the enzymatic activity of YycG′ protein: 100 μM derivative, 2 μg YycG′ protein; for IC50: Kinase-Glo, 2 μg YycG′, read-out: IC50 (inhibition of autophosphorylation of recombinant YycG′)
T1 construct: made in house; host or cells: E. coli BL21(DE3)
T1 sequence (Q5HK19 384-602 limits assumed): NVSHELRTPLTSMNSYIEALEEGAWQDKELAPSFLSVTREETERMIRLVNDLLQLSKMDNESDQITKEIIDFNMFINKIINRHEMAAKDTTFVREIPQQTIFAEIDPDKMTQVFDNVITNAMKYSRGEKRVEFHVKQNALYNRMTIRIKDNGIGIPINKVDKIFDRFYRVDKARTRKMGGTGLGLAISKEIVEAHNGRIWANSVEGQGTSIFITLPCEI
Protocol: The construction of the recombinant plasmid pET28a-YycG′ (containing the HATPase_c and HisKA domains of YycG) has been previously described (Liu et al., [2014]). After being used to transform E. coli strain BL21(DE3), this recombinant plasmid was induced to express YycG′ protein by 0.4 mM isopropyl-1-thio-β-D-galactopyranoside at 21°C for 12 h. Then, the bacterial cells were disrupted by sonication and centrifuged, the supernatant was purified by Ni–NTA agarose (Qiagen, Los Angeles, CA, USA). The inhibitory activities of the compound 5 derivatives on the ATPase activity of the YycG′ protein were measured using the Kinase-Glo™ Luminescent Kinase Assay (Promega, Madison, WI, USA). Briefly, 2 μg purified YycG′ protein was pre-incubated with a series of dilutions of the derivatives in reaction buffer [40 mM Tris (pH 7.5), 20 mM MgCl2 and 0.1 mg/ml BSA] at room temperature for 30 min, 4 μM ATP was added and incubated for 30 min at room temperature, then Kinase-Glo™ Reagent was added to detect the remaining amount of ATP, as reflected by luminescence intensity (RLU). In parallel, YycG′ protein with no addition of the derivatives was used as the control and ATP only was used as a blank. The rate of inhibition of protein phosphorylation (Rp) by the derivatives was calculated by the following equation: Rp = RLU(YycG^′+derivative+ATP+Kinase−Glo™)−RLU(YycG^′+ATP+Kinase−Glo™)/RLU(ATP+Kinase−Glo™)−RLU(YycG^′+ATP+Kinase−Glo™) × 100 IC50 (the concentration resulting in 50% inhibition of YycG′ protein autophosphorylation) was obtained by using Origin v7.0 software (OriginLab, Northampton, USA).

[3] = system: Enterococcus faecalis OG1RF; assay: Standard tube-dilution assay against Enterococcus faecalis; format: cell-based; conditions: result in words
[4] = system: S. epidermidis ATCC 35984 mature biofilms; assay: Cell viability in mature (24 h) biofilms by CLSM with Live/Dead staining; format: cell-based, Staphylococcus epidermidis; conditions: 4 × MIC, 16 h, 24 h mature biofilm; for PI fluorescence quantity (dead cells) / SYTO9 fluorescence quantity (viable cells): Image J
Protocol: The effect of the derivatives on cell viability in mature biofilms (24 h old) was determined using the Live/Dead Bacterial Viability method (Live/Dead BacLight, Molecular Probes, USA). […] The mature biofilms were stained with SYTO 9 and propidium iodide at room temperature for 15 min, following gentle washing of the dishes with normal saline, and were observed under a Leica TCS SP5 CLSM with a 63 × 1.4-NA oil-immersion objective. Further, image analysis was performed using IMARIS 7.0.0 software (Bitplane). The fluorescence quantities of biofilm were determined using Image J software. This assay was performed in triplicate and similar results were obtained.

[5] = Aqueous solubility observation; format: physicochemical; conditions: 200 μM; precipitated after incubation at 37°C for 12 h; result in words

Structure (SMILES)	minimal biofilm-killing concentration [1] [µM]	biofilm formation under shearing forces [2]	inhibition of the enzymatic activity of YycG′ protein (YycG′ protein) [%]	IC50 (YycG′ protein) [µM]	anti-bacterial activity [3]	PI/Total (reduction of the proportion of viable cells in mature biofilms) [4] [%]	PI fluorescence quantity (dead cells) [4]	SYTO9 fluorescence quantity (viable cells) [4]	aqueous solubility [5]
CCOC(=O)C1=C(c2ccccc2)N=c2sc(=Cc3ccc(-c4cccc(C(=O)O)c4)o3)c(=O)n2C1c1ccc(F)cc1 (stereo not shown) [H5-32, 2-[5-(3-carboxy-phenyl)-furan-2-ylmethylene]-5-(4-fluoro-phenyl)-3-oxo-7-phenyl-2,3-dihydro-5H-thiazolo[3,2-a]pyrimidine-6-carboxylic acid ethyl ester]	200	significant decrease in the biofilm formation; also recorded: strongly inhibited biofilm formation	55.61	83.9	displayed anti-bacterial activities	66.50	40.338 ± 5.03	20.321 ± 4.66	–
O=C(O)c1cccc(-c2ccc(C=c3sc4n(c3=O)C(c3ccc(F)cc3)C=C(c3ccccc3)N=4)o2)c1 (stereo not shown) [H5-33, 3-{5-[5-(4-fluoro-phenyl)-3-oxo-7-phenyl-5H-thiazolo [3,2-a]pyrimidin-2-ylidenemethyl]-furan-2-yl}-benzoic acid]	200	significant decrease in the biofilm formation; also recorded: strongly inhibited biofilm formation	77.04	64.9	displayed anti-bacterial activities	88.4	73.684 ± 5.56	9.669 ± 3.64	–
CCOC(=O)C1=C(c2ccccc2)N=c2sc(=Cc3ccc(-c4ccc(C(=O)O)cc4)o3)c(=O)n2C1c1ccc(Cl)cc1 (stereo not shown) [H5-34, 2-[5-(4-carboxy-phenyl)-furan-2-ylmethylene]-5-(4-chloro-phenyl)-3-oxo-7-phenyl-2,3-dihydro-5H-thiazolo[3,2-a]pyrimidine-6-carboxylic acid ethyl ester]	200	significant decrease in the biofilm formation; also recorded: strongly inhibited biofilm formation	80.72	61.9	displayed anti-bacterial activities	38.80	39.578 ± 4.74	62.165 ± 6.71	limited aqueous solubility
CCOC(=O)C1=C(c2ccccc2)N=c2sc(=Cc3ccc(-c4ccc(C(=O)O)cc4)o3)c(=O)n2C1c1ccc(F)cc1 (stereo not shown) [H5-35, 2-[5-(4-carboxy-phenyl)-furan-2-ylmethylene]-5-(4-fluoro-phenyl)-3-oxo-7-phenyl-2,3-dihydro-5H-thiazolo[3,2-a]pyrimidine-6-carboxylic acid ethyl ester]	200	significant decrease in the biofilm formation; also recorded: strongly inhibited biofilm formation	63.94	78.2	displayed anti-bacterial activities	71.7	41.253 ± 5.31	16.283 ± 4.75	limited aqueous solubility
